Data published in patent US10544134B2, “4-substituted coumarin derivatives and preparation methods and uses thereof” (SI CHUAN UNIVERSITY, priority 2015, dated 2020).
Read-outs that look alike come from different tables or passages of the source. Marks after values point to notes of the source that are not given here.

Tests used:
breast cancer cell MCF-7 = assay: Tumor cell proliferation inhibitory activity test in vitro (MTT); type: cell-based; conditions: Homo sapiens
Text: (§1) Human non-small cell lung cancer cell line NCI-H460, human small cell lung cancer cell line NCI-H446, human hepatocellular carcinoma cell strain HepG2, human colon carcinoma cell strain HCT116, human prostate cancer PC-3, human melanoma A375, colon carcinoma cell HCT-8, breast cancer cell MCF-7, ovarian cancer cell A2780s, drug-resistant ovarian cancer cell A2780/T, drug-resistant colon cancer cell HCT-8/T and doxorubicin-resistant breast cancer cell MCF-7/ADR are obtained from American Type Culture Collection (ATCC) and are cultured and preserved by the cell bank of State Key Laboratory of Biotherapy of Sichuan University. Above tumor cells are routinely cultured in DMEM culture medium containing 10% fetal bovine serum, 100 U·mL-1 penicillin and 100 mg·L−1 streptomycin, and in an incubator at 37° C. and with saturated humidity and 5% CO2 concentration.
(§2) Fill diluted cell suspension in the 96-well plate with 1000-10000 cells per well and incubate it in CO2 incubator overnight.
(§3) Replace with new medium containing various concentrations of compounds to be tested for the test group and replace with fresh medium with equal volume for the control group, each group is arranged with 5 parallel wells and incubated in an incubator at 37° C. and with 5% CO2 concentration.
(§4) Discard the supernatant after 72 hours, add 200 μL freshly prepared serum-free medium containing 0.2 mg/mL MTT into each well, continue to incubate at 37° C. for 1-4 hours, then stop incubation, carefully remove the culture supernatant in the wells and add 200 uL DMSO (dimethyl sulfoxide), oscillate with a miniature ultrasonic oscillator for 15-20 minutes to make the crystal fully dissolved and mixed. Determine OD values using a microplate reader at 570 nm with a reference wavelength of 450 nm.
(§5) Draw curves based on the growth inhibition rate for tumor cells of the same sample with different concentrations to get dose-response curve, so as to calculate IC50. Repeat each test for 3 times, measure IC50 (μM) or nanomolor concentration (nM) of compounds in different tumor cells.

[1] = tested on: ovarian cancer cell A2780s; assay: as above; type: cell-based; conditions: Homo sapiens, sensitive cells, 72 hours
Text: as §1, §2, §3, §4, §5

[2] = tested on: drug-resistant ovarian cancer cell A2780/T; assay: as above; type: cell-based; conditions: Homo sapiens, drug-resistant cells, 72 hours
Text: as §1, §2, §3, §4, §5

melanoma A375 = assay: as above; type: cell-based, human; conditions: Homo sapiens, A-375, 72 hours, read-out: IC50 of compounds for tumor cells, Activity, A375
Text: as §1, §2, §3, §4, §5

[3] = tested on: colon carcinoma cell HCT116; assay: as above; type: cell-based, human; conditions: Homo sapiens, HCT-116, 72 hours, read-out: IC50 of compounds for tumor cells, Activity, HCT116
Text: as §1, §2, §3, §4, §5

prostate cancer PC-3 = assay: as above; type: cell-based, human; conditions: Homo sapiens, 72 hours, read-out: IC50 of compounds for tumor cells, Activity, PC-3
Text: as §1, §2, §3, §4, §5

[4] = tested on: non-small cell lung cancer cell line NCI-H460; assay: as above; type: cell-based, human; conditions: Homo sapiens, NCI-H460, 72 hours, read-out: IC50 of compounds for tumor cells, Activity, H460
Text: as §1, §2, §3, §4, §5

[5] = tested on: hepatocellular carcinoma cell HEPG2; assay: as above; type: cell-based, human; conditions: Homo sapiens, HepG2, 72 hours, read-out: IC50 of compounds for tumor cells, Activity, HEPG2
Text: as §1, §2, §3, §4, §5

[6] = tested on: mouse colon carcinoma C26; assay: Pharmacodynamics in tumor-bearing mice, colon carcinoma C26 model
Description: Collect tumor cells under aseptic conditions, adjust cell density to 5×10^7 cells/mL with sterilized physiological saline, subcutaneously inoculate 0.2 mL into armpit and back of nude mice, remove the tumor when it grew to 1 cm diameter under aseptic conditions, slice it into 1 mm×1 mm tumor blocks and evenly and subcutaneously inoculate it into armpit and back of nude mice for subculture. Remove the tumor under aseptic conditions after 2 subcultures and when it grew to 1 cm diameter, slice it into 1 mm×1 mm tumor blocks and evenly and subcutaneously inoculate it into armpit and back of nude mice. Conduct random grouping of animals after 7 days when the tumor grew to 100-300 mm^3 and perform tail intravenous injection (i.v.) once per two days, with dosages and administration methods shown in Table 3 and Table 4.
(1) Tumor volume (TV), relative tumor volume (RTV) and relative tumor proliferation rate: measure long diameter and short diameter of tumor in every two days using a vernier caliper or ruler with 1/50 mm precision and dynamically observe anti-tumor effects of tested drugs.
Formula for calculating tumor volume (TV) is: TV (mm3)=a×b^2×π/6; wherein a and b stand for long diameter and short diameter respectively.
Calculate relative tumor volume (RTV) based on the measured results with formula: RTV=Vt/V0, wherein V0 stands for the measured TV of each group at the time of being grouped for administration (i.e. d0) and Vt stands for the TV value of each group for every measurement.
The indicator used to evaluate anti-tumor activity is the relative tumor proliferation rate T/C (%), with the calculating formula as following:
TRTV: relative tumor volume of treated group; CRTV: relative tumor volume of negative control group.
Kill the animal at the end of treatment, dissect and remove the tumor, weigh the tumor and take a picture. The tumor inhibition rate (%) is calculated as the following formula:

plural tumor cells = conditions: cited from earlier work
[7] = tested on: human umbilical vein endothelial cells (HUVECs); assay: Angiogenesis test on HUVECs; type: cell-based; conditions: Matrigel, 8 h treatment
Description: (§8) Obtain neonate umbilical cords from clinical sources after being approved by relevant authorities, put them into sterile PBS solution, provide ice bags at the external to keep them under low temperature, and return to the clean bench to operate. Insert a blunt needle into the human umbilical vein and wash with sterile PBS solution for multiple times until cleaning up the tainted blood. Clamp the lower end of the cord with surgical clamps, add collagenase with 1 mg/mL concentration (purchased from Roche) for digestion for 15 to 20 minutes at room temperature and shake the cord up and down at intervals. After digestion, open the surgical clamp at the lower end, let the digestive solution flow into a 50 mL centrifuge tube and wash the cord for 2-3 times with sterile PBS solution. Centrifuge the collected solution for 3 minutes at 1500 rpm. Discard the supernatant, resuspend cells with EBM-2 medium (purchased from lonza) containing various growth factors and incubate them in an incubator at constant temperature of 37° C. with 5% CO2 concentration.
Place Matrigel (purchased from Becton Dickinson (BD)) at 4° C. and make it in liquid state; precool the pipette tip, 96-well plate and EP tube to be used in the test.
Add Matrigel into the 96-well plate at 50 μL/well and incubate it in an incubator at 37° C. with CO2 concentration for 45 min to make it solidify. […]

[8] = tested on: doxorubicin-resistant breast cancer cell MCF-7/ADR; assay: Tumor cell proliferation inhibitory activity test in vitro (MTT); type: cell-based; conditions: Homo sapiens, NCI/ADR-RES, drug-resistant cells, 72 hours
Text: as §1, §2, §3, §4, §5

[9] = tested on: colon carcinoma cell HCT-8; assay: as above; type: cell-based; conditions: Homo sapiens, sensitive cells, 72 hours
Text: as §1, §2, §3, §4, §5

[10] = tested on: microtubule in hepatocellular carcinoma cell HepG2; assay: Depolymerization on microtubule by immunofluorescence technique; type: cell-based, human; conditions: HepG2, 16 h, three concentrations
Text: Place round coverslips into 6-well plate, plate hepatocellular carcinoma cell HepG2 in the 6-well plate and make the cells adhere to the round coverslips.

HCT-8/V = assay: Tumor cell proliferation inhibitory activity test in vitro (MTT); type: cell-based; conditions: Homo sapiens, drug-resistant cells, 72 hours
[11] = tested on: human umbilical vein endothelial cells (HUVECs); assay: Wound healing test on HUVECs; type: cell-based; conditions: 24 h of cells migration
Description: as §8
Collect HUVECs between the 3rd to 7th subculture generations and plate them in the 6-well plate. When the cells were about to form a confluent monolayer of cells, change the medium into a serum-free medium to starve the cells for 6 h. […]

[12] = tested on: human ovarian cancer cell A2780S; assay: Pharmacodynamics in tumor-bearing nude mice, A2780S model; type: in vivo, mouse
Text: (§6) Test condition: animal house of SPF level, use permit No. of experiment animals: SYXK (J) 2015-0023
(§7) Weigh the mouse and measure length and width of tumor using a vernier caliper in every two days, perform cervical dislocation for the nude mice after 20 days of drug administration, remove the tumor tissues, weigh and take a picture. Calculate tumor inhibition rate (%) eventually to evaluate anti-tumor effects.

[13] = tested on: taxol-resistant ovarian cancer cell A2780/Taxol; assay: Pharmacodynamics in tumor-bearing nude mice, A2780/Taxol model; type: in vivo, mouse
Text: as §6, §7

tumor = conditions: cited from earlier work
[14] = MCF7, 72 hours, read-out: IC50 of compounds for tumor cells, Activity, MCF-7
[15] = subcutaneously transplanted mouse colon carcinoma C26, 5 mg/kg i.v. once/two days
[16] = MCF7, sensitive cells, 72 hours, read-out: IC50/nM MCF-7
[17] = cells marked (μM), read-out: IC50 MCF-7/ADR
[18] = cells marked (μM), read-out: IC50 HCT-8/V
[19] = A2780s model, 30 mg/kg intraperitoneal once/seven days
[20] = A2780/T model, 30 mg/kg intraperitoneal once/seven days

IC50 (breast cancer cell MCF-7; [14]) [nM]	IC50 (melanoma A375) [nM]	IC50 [3] [nM]	IC50 (prostate cancer PC-3) [nM]	IC50 [4] [nM]	IC50 [5] [nM]	Structure (SMILES)	IC50 [1] [nM]	IC50 [2] [nM]	IC50 (breast cancer cell MCF-7; [16]) [nM]	IC50 [9] [nM]	further results
0.01 to 10	0.01 to 10	0.01 to 10	0.01 to 10	0.01 to 10	0.01 to 10	COc1ccc(N(C)c2cc(=O)oc3ccccc23)cc1OC(=O)C1CCCC1 [COUM-73, 4-(N-methyl-N-(4-methoxy-3-(cyclopentyl-carbonyloxy)benzene)-amino) Coumarin]	1.68 ± 0.075	3.34 ± 0.101			
100 to 5000	100 to 5000	100 to 5000	100 to 5000	100 to 5000	100 to 5000	COc1ccc(N(C)c2cc(=O)oc3ccccc23)cc1NC(=O)C1CCCC1 [COUM-97, 4-(N-methyl-N-(4-methoxy-3-(cyclopentylcarbonylamino)phenyl)-amino) Coumarin]					
100 to 5000	100 to 5000	100 to 5000	100 to 5000	100 to 5000	100 to 5000	COc1ccc(N(C)c2cc(=O)oc3ccccc23)cc1NC(=O)CCC(=O)O [COUM-98, 4-(N-methyl-N-(4-methoxy-3-(1-carboxylic acid-propanecarbonylamino-)phenyl)-amino) Coumarin]					

The next lines start with the compound.

Structure (SMILES)	IC50 (breast cancer cell MCF-7; [14]) [nM]	IC50 (melanoma A375) [nM]	IC50 [3] [nM]	IC50 (prostate cancer PC-3) [nM]	IC50 [4] [nM]	IC50 [5] [nM]	IC50 [1] [nM]	IC50 [2] [nM]	IC50 (breast cancer cell MCF-7; [16]) [nM]	IC50 [9] [nM]	further results
COc1ccc(N(C)c2nc(C)nc3ccccc23)cc1 [MPC-6827]	0.01 to 10	0.01 to 10	0.01 to 10	0.01 to 10	0.01 to 10	0.01 to 10	3.16 ± 0.034	4.11 ± 0.062	0.581 ± 0.004	3.12 ± 0.066	Mouse weight during the treatment ([6]; colon carcinoma C26 model, 5 mg/kg i.v. once/two days): significant drops in weight and even died; Average tumor weight [6, 15]: 0.525 g; Tumor inhibition rate (%) [6, 15]: 78.66%; IC50 (plural tumor cells): 1 to 10 nM; Inhibition of angiogenesis of HUVECs [7]: inhibit angiogenesis of HUVECs in a dose-dependent manner; IC50 ([8]; read-out: IC50/nM MCF-7/ADR): 0.699 ± 0.053 nM; Inhibition of polymerization of microtubule (immunofluorescence observation) [10]: fails to form orderly filamentous structures due to inhibited polymerization; IC50 (HCT-8/V; read-out: IC50/nM HCT-8/V): 3.75 ± 0.131 nM; Inhibition of migration of HUVECs [11]: inhibit migration of HUVECs in a dose-dependent manner
CC(=O)O[C@H]1C(=O)[C@@]2(C)[C@H]([C@H](OC(=O)c3ccccc3)[C@]3(O)C[C@H](OC(=O)[C@H](O)[C@@H](NC(=O)c4ccccc4)c4ccccc4)C(C)=C1C3(C)C)[C@]1(OC(C)=O)CO[C@@H]1C[C@@H]2O [Taxol]							58.1 ± 24.1	8120 ± 185	32.3 ± 19.5	37 ± 23.9	IC50 [8, 17]: 9150 nM; IC50 (HCT-8/V; [18]): 189 ± 52 nM; Death rate [12, 19]: 0/6; Mouse weight (g) Final [12, 19]: 18.2 ± 0.4 g; Mouse weight (g) Initial [12, 19]: 21.0 ± 0.7 g; T/C (%) [12, 19]: 13.1%; Tumor volume (mm^3) Final [12, 19]: 184.8 ± 26.6 ^c mm^3; Tumor volume (mm^3) Initial [12, 19]: 138.1 ± 25.6 mm^3; Tumor weight (g) X ± SD [12, 19]: 0.28 ± 0.07 ^c g; Tumor weight Inhibition rate % [12, 19]: 82.9%; Weight drop in average ([12]; mouse, in vivo): about 2 g; Death rate [13, 20]: 0/6; T/C (%) [13, 20]: 75.4%; Tumor volume (mm^3) Final [13, 20]: 936.4 ± 347.9^ mm^3; Tumor volume (mm^3) Initial [13, 20]: 155.6 ± 20.6 mm^3; Tumor weight (g) X ± SD [13, 20]: 0.79 ± 0.41 ^ g; Tumor weight Inhibition rate % [13, 20]: 37.7%; Mouse weight (g) Final ([13]; mouse, in vivo, ip, 30 mg/kg): 19.4 ± 1.0 g; Mouse weight (g) Initial ([13]; mouse, in vivo, ip, 30 mg/kg): 20.3 ± 0.8 g
CC[C@]1(O)C[C@H]2CN(CCc3c([nH]c4ccccc34)[C@@](C(=O)OC)(c3cc4c(cc3OC)N(C=O)[C@H]3[C@@](O)(C(=O)OC)[C@H](OC(C)=O)[C@]5(CC)C=CCN6CC[C@]43[C@@H]65)C2)C1 [Vincristin, vincristin]							22.4 ± 2.68	476 ± 76.1	54.7	14.8 ± 3.15	IC50 [8, 17]: 5850 ± 1390 nM; IC50 (HCT-8/V; [18]): 23 ± 4 nM
COc1ccc2c(-c3ccc(OC)c(O)c3)cc(=O)oc2c1 [compound C]											IC50 value, anti-tumor activity (tumor): dozens of nanomolar
